{"source": "patent US7250399B2", "about": "“Compounds having growth hormone releasing activity” (The Administrators of the Tulane Educational Fund, priority 1998, dated 2007)", "key": {"Growth Hormone release [1]": {"test_system": "Growth Hormone release", "assay": "In Vivo GH Release in Rats (i.v., serum GH by RIA)", "set-up": "species or system Sprague-Dawley rats", "settings": "for In Vivo Release of Growth Hormone in Rat, GH: i.v., serum 10 min after injection", "protocol": "Immature female Sprague-Dawley rats were obtained from the Charles River Laboratories (Wilmington, Mass.). After arrival they were housed at 25° C. with a 14:10 hour light:dark cycle. Water and Purina rat chow were available ad libitum. Pups were kept with their mothers until 21 days of age.\nTwenty-six day old rats, six rats per treatment group, were anesthetized interperitoneally with 50 mg/kg of pentobarbital 20 minutes prior to i.v. treatment with peptide. Normal saline with 0.1% gelatin was the vehicle for intravenous (i.v.) injections of the peptides. The anesthetized rats, weighing 55-65 grams, were injected i.v. with the quantity of grown hormone releasing compounds indicated in Table 3. Injection was made as a 0.1 mL solution into the jugular vein.\nAll animals were sacrificed by guillotine 10 minutes after final test injection (see Table 3). Trunk blood for the determination of blood GH levels was collected following decapitation. After allowing the blood to clot, it was centrifuged and the serum was separated from the clot. Serum was kept frozen until the day of sampling for radioimmunoassay (RIA) determination of growth hormone levels according to the following procedure, as developed by the National Institute of Arthritis, Diabetes and Digestive and Kidney Diseases (NIADDK).\nReagents are generally added to the RIA analysis tubes at a single sitting, at refrigerator temperature (about 4° C.) in the following sequence: • (a) buffer, • (b) “cold” (i.e., non-radioactive) standard or unknown serum sample to be analyzed, • (c) radio-iodinated growth hormone antigen, and • (d) growth hormone antiserum.\nReagent addition is generally carried out so that there is achieved a final RIA tube dilution of about 1:30,000 (antiserum to total liquid volume; vol:vol).\nThe mixed reagents are then typically incubated at room temperature (about 25° C.) for about 24 hours prior to addition of a second antibody (e.g., goat or rabbit anti-monkey gamma globulin serum) which binds to and causes precipitation of the complexed growth hormone antiserum. Precipitated contents of the RIA tubes are then analyzed for the number of counts in a specified period of time in a gamma scintillation counter. A standard curve is prepared by plotting number of radioactive counts versus growth hormone (GH) level. GH levels of unknown are then determined by reference to the standard curve.\nSerum GH was measured by RIA with reagents provided by the National Hormone and Pituitary Program.\nSerum levels in Tables 3 and 4 are recorded in ng/mL in terms of the rat GH standard of 0.61 International Units/mg (IU/mg). Data is recorded as the mean ±standard error of the mean (SEM). Statistical analysis was performed with Student's t-test. In Table 3, the results shown are the average of studies with six rats."}, "[2]": {"test_system": "short-statured children with various degrees of GH deficiency", "settings": "cited from earlier work"}, "Growth Hormone release [3]": {"test_system": "Growth Hormone release", "assay": "In Vitro Release of Growth Hormone in Rat", "assay_type": "cell-based", "protocol": "(§1) In vitro and in vivo activity of certain compounds were determined in rats and adult beagle dogs (in vivo activity only)."}, "Growth Hormone release [4]": {"test_system": "Growth Hormone release", "assay": "In Vivo Release of Growth Hormone in Adult Beagle Dogs", "set-up": "unit not given here", "settings": "oral dose 1 mg/kg, 1 mg/kg", "protocol": "as §1"}}, "note": "Several values for one entry are separate records, joined by “and”; a condition that tells them apart may be missing. Identical values can stand only once. Square brackets hold non-standard residues; d marks the D form. Ends that are not written are not given here. d2Nal = N[C@H](Cc1ccc2ccccc2c1)C(=O)O"}
{"substance": "[dA][d2Nal]AW[dF]K-NH2 [GHRP-2]", "values": [{"measurement": "GH ng/ml, GHRP-2 (.03)", "setting": "Growth Hormone release [1]; rat, GHRP-2 reference standard, dose (.03) (dose unit not given)", "result": 811, "unit": "ng/mL"}, {"measurement": "effect on height velocity compared with chronic recombinant human growth hormone (rhGH) administration", "setting": "[2]; in vivo", "result": "less effective"}, {"measurement": "rate of height velocity", "setting": "[2]; short-statured children, 2-3 times per day over a 2 year period", "result": "accelerated"}]}
{"substance": "N-2-hydroxylethyl-Aib-DTrp-DPro-diisobutylamide [R^1 = -N-2-OHethyl/DPro-diisobutylamide]", "values": [{"measurement": "In Vitro Release of Growth Hormone in Rat, GH", "setting": "Growth Hormone release [3]; compound at .001 (dose unit not given)", "result": 452, "unit": "ng/mL"}, {"measurement": "In Vitro Release of Growth Hormone in Rat, GH", "setting": "Growth Hormone release [3]; compound at .003 (dose unit not given)", "result": 326, "unit": "ng/mL"}, {"measurement": "In Vitro Release of Growth Hormone in Rat, GH", "setting": "Growth Hormone release [3]; compound at .01 (dose unit not given)", "result": 526, "unit": "ng/mL"}, {"measurement": "In Vitro Release of Growth Hormone in Rat, GH", "setting": "Growth Hormone release [3]; compound at .03 (dose unit not given)", "result": 820, "unit": "ng/mL"}, {"measurement": "In Vitro Release of Growth Hormone in Rat, GH", "setting": "Growth Hormone release [3]; compound at .1 (dose unit not given)", "result": 1163, "unit": "ng/mL"}, {"measurement": "In Vitro Release of Growth Hormone in Rat, GH", "setting": "Growth Hormone release [3]; compound at .3 (dose unit not given)", "result": 1217, "unit": "ng/mL"}, {"measurement": "In Vivo Release of Growth Hormone in Rat, GH", "setting": "Growth Hormone release [1]; compound at 3 (dose unit not given)", "result": 156, "unit": "ng/mL"}, {"measurement": "In Vivo Release of Growth Hormone in Rat, GH", "setting": "Growth Hormone release [1]; compound at 10 (dose unit not given)", "result": 259, "unit": "ng/mL"}, {"measurement": "In Vivo Release of Growth Hormone in Rat, GH", "setting": "Growth Hormone release [1]; compound at 30 (dose unit not given)", "result": 451, "unit": "ng/mL"}, {"measurement": "In Vivo Release of Growth Hormone in Adult Beagle Dogs", "setting": "Growth Hormone release [4]; time 0.5 hr", "result": "102 and 62"}, {"measurement": "In Vivo Release of Growth Hormone in Adult Beagle Dogs", "setting": "Growth Hormone release [4]; time 1 hr", "result": "26 and 30"}, {"measurement": "In Vivo Release of Growth Hormone in Adult Beagle Dogs", "setting": "Growth Hormone release [4]; time 2 hr", "result": "25 and 19"}, {"measurement": "In Vivo Release of Growth Hormone in Adult Beagle Dogs", "setting": "Growth Hormone release [4]; time 3 hr", "result": 10}, {"measurement": "In Vivo Release of Growth Hormone in Adult Beagle Dogs", "setting": "Growth Hormone release [4]; time 4 hr", "result": "6.1 and 3.8"}, {"measurement": "In Vivo Release of Growth Hormone in Adult Beagle Dogs", "setting": "Growth Hormone release [4]; time 6 hr", "result": "4.0 and 2.5"}]}
